According to the NIST ThermoML archive (doi:10.1016/j.jct.2005.10.007):

Assay: mn = molality of the nth substance listed, in mol/kg
Details: 350 kPa, Liquid, Extra sensitive DSC

C[C@H](N)C(=O)O [(S)-2-aminopropanoic acid] + O
apparent molar heat capacity [J/K/mol]
Details	m1 = 0.0152	m1 = 0.0299	m1 = 0.05	m1 = 0.08	m1 = 0.1247	m1 = 0.2493	m1 = 0.5149	m1 = 1.002
278.15 K	107	137	101.3	106	107	113.3	122.6	118.5
283.15 K	119	148	113.2	117.9	118.8	124.8	133.2	128.7
288.15 K	131	156	123.3	127.8	128.9	134.4	142	137.2
293.15 K	143	163	131.5	136	137.4	142.4	149.5	144.3
298.15 K	152	170	138.2	142.8	144.2	149.1	155.6	150.2
303.15 K	158	174	143.9	148.7	150.3	154.9	160.8	155.5
308.15 K	163	178	148.9	153.7	155.4	159.8	165.3	159.8
313.15 K	169	182	153.6	158	159.9	164.1	169.3	163.8
318.15 K	172	185	157.3	161.6	163.9	167.7	172.6	167.1
323.15 K	175	188	160.9	164.9	167.3	170.9	175.5	170
328.15 K	178	190	163.7	167.7	170.3	173.6	178	172.5
333.15 K	181	192	166.4	170.2	173	176.1	180.3	174.8
338.15 K	184	194	168.8	172.4	175.4	178.3	182.3	176.9
343.15 K	187	196	170.7	174.2	177.3	180.1	183.9	178.6
348.15 K	188	197	172.4	175.9	178.9	181.7	185.3	180.1
353.15 K	190	198	174	177.4	180.5	183.1	186.6	181.4
358.15 K	191	199	175.2	178.5	181.6	184.3	187.6	182.5
363.15 K	192	199	176.1	179.4	182.5	185.1	188.4	183.5
368.15 K	192	200	176.6	180.1	183.3	185.8	189	184.2
373.15 K	192	200	177.1	180.5	183.7	186.2	189.4	184.8
378.15 K	192	200	177.2	180.6	183.8	186.4	189.5	185.1
383.15 K	192	200	177.1	180.7	183.9	186.4	189.6	185.4
388.15 K	192	199	176.8	180.3	183.6	186.2	189.4	185.5
393.15 K	190	200	176.6	179.8	183.1	185.8	189.2	185.5
